Results from PubChem BioAssay AID1918946 (Molecular Pharmacology Branch, DTP, NCI, 2023).
Where “and” joins values, the source holds several entries; their conditions need not be identical. Equal entries are not always repeated. Calls of active or inactive are those of the source. Rule for the calls: active = viability on the fitted dose curve at most 10% of control; inactive = the rest.

Test system: 885512-296-R-J2-PDC complex spheroid viability
Test: Anticancer human tumor 885512-296-R-J2-PDC patient-derived breast carcinoma cell line growth inhibition
Conditions: for viability, T/C: stronger effect = lower value; for IC50: curve of compound
Description: Multicellular complex tumor spheroid response to LSD1 Inhibitor Iadademstat in combination with a variety of drugs and investigational agents in selected tumor cell lines
The current study was undertaken to assess response to LSD1 inhibitors in combination with standard-of-care drugs and investigational agents in solid tumor complex spheroid models as well as in the K-562 leukemia. Complex spheroids include a stromal component modeled by human endothelial cells (HUVEC) and fibroblasts modeled by human mesenchymal stem cells (MSCs). The concentration ranges selected for each drug and investigational agent were based upon clinically achievable concentrations if the clinical Cmax of the agent was known.
Compounds. The drugs and investigational agents used in this study are listed on Table 1. All of the agents used, including staurosporine (NSC755774) and gemcitabine (NSC613327), were obtained from the Developmental Therapeutics Program, NCI. FDA-approved anticancer drugs are available from the NCI at http://dtp.nci.nih.gov/branches/dscb/oncology_drugset_explanation.html. Drugs and investigational agents were >95% pure by proton nuclear magnetic resonance (NMR) and liquid chromatography/mass spectrometry (LC/MS). Stock solutions were prepared at 400x in DMSO, stored at -70 degrees C, and diluted in fresh medium prior to their use. The final concentration of DMSO in cell culture wells never exceeded 0.25% (v/v). The FDA-approved anticancer drug set is available from the Developmental Therapeutics Program at https://dtp.cancer.gov/organization/dscb/obtaining/available_plates.htm. All drugs and investigational agents were tested over a range starting from a high concentration at or near the clinical Cmax and decreasing in half-log increments. If the clinical Cmax for an agent had not been determined, the highest concentration tested was 10 microM.
Cell Lines. The patient-derived cancer cell (PDC) lines: 292921-168-R-J2-PDC, K24384-001-R-PDC, and 521955-158-R2-J5-PDC pancreatic carcinomas, 556581-035-R-J1 ovarian carcinoma, 324938-238-R-J1-PDC, 855422-203-R-J1-PDC and 883617-216-R-J1-PDC urothelial bladder carcinomas, 743489-274-T-PDC renal cell carcinoma, 138582-R-J1 Merkel cell tumor, K60290-347-R-J1 and K57222-313-R-J1-PDC glioblastomas, 653999-131-R-J2-PDC, LG0703-F948-PDC, and 349418-098-R-PDC non-small cell lung carcinomas, 885512-296-R-J2-PDC, 171881-019-R-J1-PDC breast carcinomas and 186277-243-T-J2-PDC and 233499-124-R-J2-PDC colon carcinomas were obtained from the NCI Patient-Derived Models Repository (PDMR, https://pdmr.cancer.gov). The established cell lines NCI/ADR-RES (RRID:CVCL_14520 and OVCAR-5 (RRID:CVCL_1628) ovarian carcinomas, 786-O (RRID:CVCL_1051) and A498 (RRID:CVCL_A498) renal cell carcinoma, NCI-H211 (ATCC, cat. CRL-5824; RRID:CVCL_1529), NCI-H196 (ATCC, cat. CRL-5823, RRID:CVCL_1509), SW 1271 (ATCC, cat. CRL-2177, RRID:CVCL_1716) and NCI-H1876 (ATCC, cat. CRL-5902, RRID:CVCL_1503) small cell lung carcinomas, MDA-MB-231 (RRID:CVCL_0062) and MDA-MB-468 (RRID:CVCL_0419)breast carcinomas (10-12). Pooled donor human umbilical vein endothelial cells (HUVEC, Lonza, cat. CC-2519) and human mesenchymal stem cells (hMSC, Lonza, cat. PT-2501) were purchased from Lonza (Walkersville, MD).
Cell Culture. All cells were maintained in an incubator at 37 degrees C and 5% CO2 with 95% humidity. The PDC lines were cultured according to standard operating procedures established by the NCI PDMR (https://pdmr.cancer.gov). Briefly all PDCs were thawed and cultured in Matrigel-coated flasks prepared with a working solution of 1X Ham's F-12 nutrient mix, without supplementation (Invitrogen, Waltham, MA, cat. 11765054), 100 U/mL penicillin-streptomycin (Invitrogen, cat. 15140122), and 2.5% Matrigel (Corning Inc., Corning, NY, cat. 354248) for the first three passages. […]
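Throughout, for IC50: spheroids exposed to agents for 7 days before viability read.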
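Throughout, for viability, T/C: spheroids exposed to agents for 7 days before viability read.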

Structure (SMILES)	viability, T/C (compound 0.00316 µM)	viability, T/C (compound 0.01 µM)	viability, T/C (compound 0.0316 µM)	viability, T/C (compound 0.1 µM)	IC50	viability, T/C (compound 0.316 µM)	viability, T/C (compound 1 µM)	also measured
CC(C)CC(NC(=O)C(Cc1ccccc1)NC(=O)c1cnccn1)B(O)O (stereo unspecified)	2.61% and 0.22%	4.07% and 0.18%	0.12% and 0.1%	3.52% and 0.14%	0.879 nM and < 0.316 nM	–	–	viability, T/C (compound 0.000316 µM): 99.8% and 17.9%
CC(C)CC(NC(=O)CNC(=O)c1cc(Cl)ccc1Cl)B1OC(=O)CC(CC(=O)O)(C(=O)O)O1 (stereo unspecified)	96.3% and 68.9%	22.7% and 9.34%	8.52% and 2.1%	4.36% and 0.41%	6.45 nM and 4.56 nM	–	–	viability, T/C (compound 0.000316 µM): 102% and 89.6%; viability, T/C (compound 0.001 µM): 84.1% and 89.2%
CC(C)c1c(-c2ccccc2)nc2c(C#N)c[nH]n2c1=O	–	–	90.7% and 86%	106% and 89.1%	4130 nM and > 10000 nM	86.7% and 80.9%	99.3% and 81%	viability, T/C (compound 3.16 µM): 92.9% and 87.5%; outcome (compound 10 µM): active; viability, T/C (compound 10 µM): 57%
CC1(C)CCC(CN2CCN(c3ccc(C(=O)NS(=O)(=O)c4ccc(NCC5CCOCC5)c([N+](=O)[O-])c4)c(Oc4cnc5[nH]ccc5c4)c3)CC2)=C(c2ccc(Cl)cc2)C1	–	–	121% and 95.1%	109% and 91%	3310 nM and 1320 nM	89.3% and 82%	72.6% and 61.4%	viability, T/C (compound 3.16 µM): 63.1% and 19.3%; viability, T/C (compound 10 µM): 10.2% and 0.17%
CC1COCCN1c1cc(-c2ccnn2C)c2ccnc(-c3ccn[nH]3)c2n1 (stereo unspecified)	–	6.26% and 3.04%	2.66% and 1.79%	2.1% and 2.15%	< 3.16 nM	4.57% and 2.49%	11.1% and 3.37%	–
CC1COCCN1c1cc(C2(S(C)(=N)=O)CC2)nc(-c2ccnc3[nH]ccc23)n1 (stereo unspecified)	–	–	89.7% and 84.5%	69.7% and 90.6%	151 nM and 317 nM	14.4% and 49.3%	7.6% and 9.02%	viability, T/C (compound 3.16 µM): 7.26% and 2.77%; viability, T/C (compound 10 µM): 7.13% and 1.85%
CCN(c1cc(-c2ccc(CN3CCOCC3)cc2)cc(C(=O)NCc2c(C)cc(C)[nH]c2=O)c1C)C1CCOCC1	–	–	–	–	1700 nM and 188 nM	–	–	viability, T/C (compound 0.00949 µM): 92.3% and 81.8%; viability, T/C (compound 0.03 µM): 80.2% and 89.8%; viability, T/C (compound 0.0949 µM): 74.8% and 68%; viability, T/C (compound 0.3 µM): 60.2% and 35.7%; viability, T/C (compound 0.949 µM): 76.2% and 18.2%; viability, T/C (compound 3 µM): 25.1% and 7.11%
CC[C@@]1(O)C(=O)OCc2c1cc1n(c2=O)Cc2cc3c(CN(C)C)c(O)ccc3nc2-1	8.16% and 3.47%	7.89% and 3.58%	9.39% and 2.75%	9.51% and 1.92%	0.41 nM and 0.678 nM	–	–	viability, T/C (compound 0.000316 µM): 59.8% and 76.7%; viability, T/C (compound 0.001 µM): 16.6% and 36.4%
CCc1c2c(nc3ccc(O)cc13)-c1cc3c(c(=O)n1C2)COC(=O)[C@]3(O)CC	–	–	–	–	< 0.949 nM	–	–	viability, T/C (compound 0.000949 µM): 7.33% and 2.09%; viability, T/C (compound 0.003 µM): 4.69% and 2%; viability, T/C (compound 0.00949 µM): 4.28% and 1.07%; viability, T/C (compound 0.03 µM): 6.78% and 1.14%; viability, T/C (compound 0.0949 µM): 12.3% and 1.2%; viability, T/C (compound 0.3 µM): 3.96% and 1.27%
COc1cc(C2c3cc4c(cc3C(OC3OC5COC(C)OC5C(O)C3O)C3COC(=O)C23)OCO4)cc(OC)c1O (stereo unspecified)	–	–	–	–	50.5 nM and 47 nM	–	–	viability, T/C (compound 0.00949 µM): 86.4% and 69.3%; viability, T/C (compound 0.03 µM): 64.5% and 70.5%; viability, T/C (compound 0.0949 µM): 32.7% and 18.8%; viability, T/C (compound 0.3 µM): 10.8% and 4.99%; viability, T/C (compound 0.949 µM): 6.14% and 3.49%; viability, T/C (compound 3 µM): 7.43% and 2.68%
COc1cc(Nc2ncc3c(n2)-c2ccc(Cl)cc2C(c2c(F)cccc2OC)=NC3)ccc1C(=O)O	63.8% and 24.6%	32.3% and 28.3%	23% and 22.3%	31.3% and 21%	5.39 nM and < 3.16 nM	14.5% and 18.3%	12% and 14.3%	–
